Experimental data from publication PMC3169561, “Restoration of IFNγR Subunit Assembly, IFNγ Signaling and Parasite Clearance in Leishmania donovani Infected Macrophages: Role of Membrane Cholesterol” (PLoS Pathogens, 2011).

Target: T1, IFNγ receptor subunit 1 (IFNγR1) (Mus musculus, UniProt P15261)
T1 construct: gene Ifngr1; synthetic Wt IFNγR1 peptide, CRAC motif, residues 269 to 280 ([…])
Test: SPR (BIAcore […], L1 chip) of peptide over immobilized phosphatidylcholine/cholesterol liposomes
Assay type: binding

CC(C)CCC[C@@H](C)[C@H]1CC[C@H]2[C@@H]3CC=C4C[C@@H](O)CC[C@]4(C)[C@H]3CC[C@]12C [cholesterol]
Kd: 4.27 nM
